# Results reported in patent US20230220480A1, “IRON-SCORE AND IN VITRO METHOD FOR IDENTIFYING HIGH RISK DLBCL SUBJECTS AND THERAPEUTIC USES AND METHODS” (CENTRE NATIONAL DE LA RECHERCHE SCIENTIFIQUE (CNRS), priority 2019, published 2023).
# Like-named read-outs stand apart in the source and are kept apart here.
# What was measured:
# [1] = tested on: DB and OCI-LY3 DLBCL derived cell-line; assay: phospho-RPA2 T21 foci immunofluorescence; assay type: cell-based, human; details: 50 nM, 24H
# Procedure: DB and OCI-LY3 DLBCL derived cell-line was treated with 50 nM Ironomycin during 24H. Immunofluoresence staining for foci of phospho-RPA2 T21, S phase (EdU integration) and DAPI was performed in DLBCL cells. (Magnification x63). Scale bar: 10 μm.
# (§1) At least 300 cells were counted for each group. Statistical difference was tested using a Fisher's exact test. * P<0.05, ** P<0.01, *** P<0.001, **** P<0.0001. NS: non-significant.
# [2] = tested on: DLBCL cells; assay: DNA double strand breaks, Phospho-H2A.X (Ser139) foci and western blot; assay type: cell-based, human; details: 24 hours
# Procedure: DSB induction was monitored by Phospho-H2A·X (Ser139) staining and nuclei were stained with DAPI. Foci were visualized by fluorescence microscopy. Original magnification X 63. Scale bar: 10 μm.
# Cells were treated with iron chelators (80 μM Deferasirox), and Ironomycin (20 nM and 100 nM) during 24H. Protein levels of Phospho-H2A·X (S139) were analyzed by western blot (D)
# as §1
# [3] = tested on: DLBCL cells; assay: Autophagy, LC3B II puncta; assay type: cell-based, human; details: 100 nM, 24H, P<0.0001
# [4] = tested on: DB and OCI-LY3 cells; assay: DNA fiber assay (replication fork progression); assay type: cell-based, human
# Procedure: DB and OCI-LY3 cells were labeled with IdU, treated with vehicle, gemcitabine (10 μM) or Ironomycin (100 μM) and labeled with CIdU (30 minutes each), and then harvested for DNA fiber assay (A and B).
# DB cells were pretreated or not by deoxynucleotides for 30 minutes, labeled with IdU, treated with vehicle, gemcitabine (10 μM) or Ironomycin (100 μM) and labeled with CIdU (30 minutes each), and then harvested for DNA fiber assay (C and D).
# Boxplot represent median±interquartile ranges and dots represent outliers of track length (expressed in μm). Results represent at least 200 track measurements. * P<0.05, **** P<0.0001, NS: non-significant, Mann-Whitney test.
# Eukaryotic cells contain numerous iron-requiring proteins such as iron-sulfur (Fe—S) cluster proteins, hemoproteins and ribonucleotide reductases that play key roles in DNA replication and require iron as a cofactor (Zhang, 2014). The inventors next monitored the effect of ironomycin on fork progression in DLBCL cells using DNA fiber analysis. To this end, DLBCL cell lines were pulse labeled with 10 μM IdU and 100 μM CIdU and the length of CIdU tracks was measured to estimate the distance covered by individual forks during the pulse. […] Gemcitabine was used as a positive control. […]
# [5] = tested on: primary DLBCL cells; details: for reduction of the median number of viable primary DLBCL cells: N=5 patients, with CD40L
# Procedure: Primary samples of DLBCL patients were cultured with their microenvironment recombinant CD40L in presence or absence of 50 nM and 100 nM of Ironomycin. Percentage of malignant DLBCL cells for each individual patients were analyzed by flow cytometry and expressed in % of control (A). […] The effect of Ironomycin alone or in combination with Doxorubicin on normal CD3+ cells was assessed by flow cytometry (C).
# Cells are obtained from lymph nodes or blood of 5 patients with DLBCL. Cells from blood are obtained by density gradient separation and cells from lymph node are obtained with a tissues dissociator and qualified by Flow cytometry.
# Cells are cultured in Gibco® Iscove's MDM (Glutamax) medium (#31980-022) with 20% FBS with antibiotitcs-antimicotics (Gibco Penicillin-streptomycin-amphotericin B 100X, #15240-096) at a density of 0.5×10^6 Cell/mL with 50 ng/mL of histidine-tagged CD40L (R&D System, 2706-CL) and 5 μg/mL of anti-histidine antibody R&D System, MAB050), Gibco® pyruvate 100X, #1136-039. Cells are seeded 24H after thawing and treated with various compounds during 72H.
# Total cells were counted with trypan bleu and stained with the panel CD45 V500 (BD, #560777), Kappa FITC (Dako, F0434), CD19 PE-Cy7 (BD, #341113), Lambda PE (Dako, R0437), CD3 APC-H7 (BD, #641415), CD10 APC (BD, #332777) and CD20 V450 (BD, #655872) and analyzed by flow cytometry (Canto II cytometer, BD Pharmigen).Tumorous population cells were gated on CD19+, CD45+, CD20+, Kappa or lambda and non-tumorous population cells were gated on CD45+,CD19−, and T cells on CD45+, CD3+, CD19−.
# [6] = tested on: NU-DUL-1; assay: Cell viability assay (CellTiter-Glo, ATP quantification); assay type: cell-based, human; details: NU-DUL-1 (ABC), 96H
# From the text: (§2) The 16 DLBCL cell lines (U2932, OCI-LY-3, NU-DHL-1, OCI-LY-19, DB, SUDHL4, OCILY1, SUDHL5, DOHH2, SUDHL10, HT, RI-1, SU-DHL-6, NUDUL-1, WSU-DLCL-2 and OCI-LY-7) were purchased from the DSMZ (Leibniz-Institut DSMZ—Deutsche Sammlung von Mikroorganismen und Zellkulturen GmbH, Germany). They were maintained in RPMI-1640 (Gibco, Invitrogen), supplemented with 10% fetal bovine serum (PAA laboratory GmbH) for U2932, SUDHL-4, HT, DOHH2, SUDHL-10, RI-1, WSU-DLCL-2 cell lines, 20% FBS OCI-LY3, DB, SUDHL-5, NUDHL-1, SU-DHL-6, NUDUL-1 cell lines. OCI-LY1 and OCI-LY7 were cultured in IMDM (Gibco, Invitrogen), supplemented with 20% fetal bovine serum and OCI-LY19 was cultured in MEM alpha modified (Gibco, Invitrogen), supplemented with 20% fetal bovine serum. Cultures were maintained at 37° C. in a humidified atmosphere with 5% CO2.
# (§3) DLBCL-derived cell lines were cultured for 4 days in 96-well flat-bottom microtiter plates in RPMI 1640 medium, 10% or 20% FCS (control medium) in the presence of various compounds. The number of viable cells in culture was determined using the CellTiter-Glo Luminescent Cell Viability Assay from Promega, Madison, Wis., USA using a Centro LB 960 luminometer (Berthold Technologies, Bad Wildbad, Germany).
# (§4) This test is based on quantitation of the intracellular ATP present, which signals the presence of metabolically active cells. Data are expressed as the mean percentage of six replicates, normalized to the untreated control.
# (§5) We extending the analyses to a large panel of 16 DLBCL cell lines. The panel of 16 DLBCL cell lines were incubated with increasing concentrations of Ironomycin or vehicle for 96H. Table 7 hereunder presents the inhibitory concentration 50% (IC50) of Ironomycin for the 16 DLBCL cell-lines.
# [7] = tested on: OCI-LY1; assay: as above; assay type: cell-based, human; details: OCI-LY1 (GCB), 96H
# From the text: as §2, §3, §4, §5
# [8] = tested on: NU-DHL-1; assay: as above; assay type: cell-based, human; details: NU-DHL-1 (GCB), 96H
# From the text: as §2, §3, §4, §5
# [9] = tested on: SU-DHL-10; assay: as above; assay type: cell-based, human; details: SU-DHL-10 (GCB), 96H
# From the text: as §2, §3, §4, §5
# [10] = tested on: HT; assay: as above; assay type: cell-based, human; details: HT (GCB), 96H
# From the text: as §2, §3, §4, §5
# [11] = tested on: WSU-DLCL-2; assay: as above; assay type: cell-based, human; details: WSU-DLCL-2 (GCB), 96H
# From the text: as §2, §3, §4, §5
# [12] = tested on: SU-DHL-4; assay: as above; assay type: cell-based, human; details: SU-DHL-4 (GCB), 96H
# From the text: as §2, §3, §4, §5
# [13] = tested on: SU-DHL-6; assay: as above; assay type: cell-based, human; details: SU-DHL-6 (GCB), 96H
# From the text: as §2, §3, §4, §5
# [14] = tested on: DOHH-2; assay: as above; assay type: cell-based, human; details: DOHH-2 (GCB), 96H
# From the text: as §2, §3, §4, §5
# [15] = tested on: RI-1; assay: as above; assay type: cell-based, human; details: RI-1 (ABC), 96H
# From the text: as §2, §3, §4, §5
compound,measurement,setting,value
C#CCN[C@@H]1C=C[C@]2(O[C@H]([C@@H](CC)C(=O)[C@@H](C)[C@@H](O)[C@H](C)[C@@H]3O[C@@H]([C@@H](CC)C(=O)O)CC[C@@H]3C)[C@@H](C)C[C@H]2C)O[C@@]12CC[C@@](C)([C@H]1CC[C@](O)(CC)[C@H](C)O1)O2 [Ironomycin],phosphorylation of RPA2 on threonine 21 (replication stress),[1],increased phosphorylation of replication protein A sub-unit 2 (RPA2) on threonine 21
same,"DNA double strand breaks (γH2AX foci, H2AX phosphorylation)",[2],induced DNA double strand breaks
same,LC3B II puncta (autophagy),[3],clear increase in LC3B II puncta
same,effect of deoxynucleotide supplementation on replication fork delay,[4]; DB cells pretreated by deoxynucleotides for 30 minutes,partially reversed
same,length of CIdU tracks compared to control cells,[4]; P<0.0001,significantly shorter
same,reduction of the median number of viable primary DLBCL cells,[5]; 50 nM,63.1%
same,reduction of the median number of viable primary DLBCL cells,[5]; 100 nM,67.1%
same,toxicity in DLBCL cells compared to normal cells from the microenvironment,"[5]; primary samples, 50 nM and 100 nM",higher toxicity
same,IC50,[6],13.7 nM
same,IC50,[7],20.3 nM
same,IC50,[8],50.5 nM
same,IC50,[9],36.5 nM
same,IC50,[10],24.1 nM
same,IC50,[11],30.7 nM
same,IC50,[12],7.2 nM
same,IC50,[13],32.8 nM
same,IC50,[14],91.5 nM
same,IC50,[15],30.2 nM
